Patent US20100323990A1, “SHIP 1 MODULATOR PRODRUGS” (THE UNIVERSITY OF BRITISH COLUMBIA, priority 2006, published 2010)

Experiments:
wild-type SHIP = experiment: Scintillation proximity assay, wild-type SHIP; assay type: binding; details: SPA beads
Method: Compound 100 was radiolabelled with tritium by GE Healthcare (Piscataway, N.J.) to a specific activity of 42 Ci/mmole. Copper chelate (His-Tag) YSi SPA Scintillation Beads (GE ealthcare, Piscataway, N.J.) were diluted in 0.25% BSA/TBS to 1.5 mg/mL and recombinant, His6-tagged protein added at the indicated concentrations: wild-type (1 pM), ΔC2 SHIP enzyme (1 pM) or C2 domain (10 nM). Protein was allowed to bind 1 h at 23° C., and 250 μg of beads were aliquoted per well of a 96-well plate. 5 μCi of [^3H]-Compound 100 was added per well, the plate gently agitated for 30 min and the amount of bead associated radioactivity quantified by counting in a Wallac BetaPlate plate scintillation counter.
Isolated recombinant, His6-tagged C2 domain was expressed and its PI-3,4-P2 binding ability was determined using protein lipid overlay assays. Purified C2 domain was incubated with membrane strips spotted with PI-3,4-P2 and bound protein detected using an anti-His6 antibody. As shown in FIG. 11C the C2 domain bound PI-3,4-P2 and this binding was inhibited by Compound 100, consistent with both Compound 100 and PI-3,4-P2 interacting with the C2 domain at a common binding site.

SHIP C2 domain = experiment: Protein lipid overlay assay, C2 domain binding to PI-3,4-P2; details: 4 μM Compound 100, 30 min at 23° C.
Method: Protein lipid overlay (PLO) assays were performed essentially as described with minor modifications. Lyophilized phosphatidylinositol-3,4-bisphosphate diC16 (PIP2, Echelon Biosciences, Salt Lake City, Utah) was reconstituted in a 2:1.8 solution of methanol and water. PVDF membranes (Millipore, Missisauga, Ont) were initially wetted in methanol for 1 minute, and washed 3×5 min with water, and gently agitated in TBST buffer (20 mM Tris pH 7.5, 0.15 M NaCl (TBS) with 0.05% Tween 20) at 23° C. overnight. Treated membranes were air-dried and dilutions of reconstituted lipids were spotted in 1 μl aliquots to give the indicated amount of PIP2 per membrane spot. Membranes were dried completely and blocked with blocking buffer (3% BSA in TBS with 0.05% NaN3) for 1 h at 23° C. Purified, recombinant C2 domain was diluted into blocking buffer (5 μM final) and treated with 4 μM Compound 100 or EtOH control for 30 min at 23° C. prior to overnight incubation with the PIP2 spotted membranes. […] After washing, bound proteins were detected and quantified on a Li-Cor Odyssey scanner (Lincoln, Nebr.).
Isolated recombinant, His6-tagged C2 domain was expressed and its PI-3,4-P2 binding ability was determined using protein lipid overlay assays. Purified C2 domain was incubated with membrane strips spotted with PI-3,4-P2 and bound protein detected using an anti-His6 antibody. […]

Mast cells = experiment: Stimulation of mast cells by FcεRI crosslinking (Assay 4); assay type: cell-based; details: test compound 30 min prior to DNP-HSA
Method: Assay 1) In vitro testing in a SHIP enzyme assay. Test compounds were dissolved in a suitable solvent (e.g. EtOH, DMSO and others) and diluted into aqueous buffer (20 mM Tris HCl, pH 7.5 and 10 mM MgCl2). SHIP enzyme assays were performed in 96-well microtitre plates with 10 ng of enzyme/well in a total volume of 25 μL of 20 mM Tris HCl, pH 7.5 and 10 mM MgCl2. SHIP enzyme was incubated with test extracts (provided in solvent) or vehicle for 15 min at 23° C. before the addition of 100 μM inositol-1,3,4,5-tetrakisphosphate (Echelon Biosciences Inc, Salt Lake City, Utah). After 20 min at 37° C. and the amount of inorganic phosphate released assessed by the addition of Malachite Green reagent and absorbance measurement at 650 nm. Assay 2) Macrophage TNF-α production. J774.1a macrophage cells were treated with 10 μg/mL of test compound dissolved in solvent (e.g. cyclodextran) for 40 minutes prior to the addition of 100 ng/mL LPS. Culture supernatants were collected after 2 hr and 5 hr for TNF-α determination by ELISA. Assay 3) Macrophage TNF-α NO assay. J774.1a macrophage cells were treated with 10 μg/ml of test compound dissolved in solvent for 40 minutes prior to the addition of LPS. Culture supernatants were collected after 24 hr. for determination of NO concentration using the Griess reagent. Assay 4) Stimulation of mast cells by FcεRI crosslinking. Mast cells were pre-loaded overnight in BMMC medium lacking IL-3 with 0.1 μg/ml anti-DNP IgE (SPE-7, Sigma, Oakville, Ont). For calcium flux measurements, cells were incubated with 2 μM fura 2-acetoxymethyl ester (Molecular Probes, Eugene, Oreg.) in Tyrode's buffer at 23° C. for 45 min. Cells were then washed and incubated in the presence of the test compound 30 min prior to stimulation with the indicated concentration of DNP-human serum albumin (DNP-HSA). Calcium influx was monitored by spectrofluorometry as described previously. For analysis of intracellular signaling, cells were pre-loaded with anti-DNP IgE as above, pre-treated with the test compound for 30 min at 37° C. and stimulated with 20 ng/ml DNP-HSA for 5 min. Total cell lysates were then prepared and analyzed for phospho-PKB, phospho-p38^MAPK, phospho-MAPK, Grb-2 (Cell Signalling, Mississauga, Ont) and SHIP^6 by immunoblot analysis. Assay 5) Mouse acute cutaneous anaphylaxis model. […] The ability of SHIP activators to reduce tumor cell survival was assessed in MM cell lines treated with the test compound. The lines OPM1, OPM2, MM.1S and RPMI 8226 were plated at a density of 1×10^5 cells/mL in 200 μL of medium with various concentrations of the test compound, and viable cell numbers were determined on day 3 and day 5 by trypan blue exclusion. […]

SHIP enzyme = experiment: In vitro SHIP enzyme assay (Assay 1), phosphate release by Malachite Green; assay type: biochemical; as to Assay 1: SHIP enzyme assay, desired activity: key: a ‘+’ indicates a positive result for desired activity; a ‘−’ indicates a negative result for desired activity
Method: Assay 1) In vitro testing in a SHIP enzyme assay. Test compounds were dissolved in a suitable solvent (e.g. EtOH, DMSO and others) and diluted into aqueous buffer (20 mM Tris HCl, pH 7.5 and 10 mM MgCl2). SHIP enzyme assays were performed in 96-well microtitre plates with 10 ng of enzyme/well in a total volume of 25 μL of 20 mM Tris HCl, pH 7.5 and 10 mM MgCl2. SHIP enzyme was incubated with test extracts (provided in solvent) or vehicle for 15 min at 23° C. before the addition of 100 μM inositol-1,3,4,5-tetrakisphosphate (Echelon Biosciences Inc, Salt Lake City, Utah). After 20 min at 37° C. and the amount of inorganic phosphate released assessed by the addition of Malachite Green reagent and absorbance measurement at 650 nm. Assay 2) Macrophage TNF-α production. J774.1a macrophage cells were treated with 10 μg/mL of test compound dissolved in solvent (e.g. cyclodextran) for 40 minutes prior to the addition of 100 ng/mL LPS. Culture supernatants were collected after 2 hr and 5 hr for TNF-α determination by ELISA. Assay 3) Macrophage TNF-α NO assay. J774.1a macrophage cells were treated with 10 μg/ml of test compound dissolved in solvent for 40 minutes prior to the addition of LPS. Culture supernatants were collected after 24 hr. for determination of NO concentration using the Griess reagent. Assay 4) Stimulation of mast cells by FcεRI crosslinking. Mast cells were pre-loaded overnight in BMMC medium lacking IL-3 with 0.1 μg/ml anti-DNP IgE (SPE-7, Sigma, Oakville, Ont). For calcium flux measurements, cells were incubated with 2 μM fura 2-acetoxymethyl ester (Molecular Probes, Eugene, Oreg.) in Tyrode's buffer at 23° C. for 45 min. Cells were then washed and incubated in the presence of the test compound 30 min prior to stimulation with the indicated concentration of DNP-human serum albumin (DNP-HSA). Calcium influx was monitored by spectrofluorometry as described previously. For analysis of intracellular signaling, cells were pre-loaded with anti-DNP IgE as above, pre-treated with the test compound for 30 min at 37° C. and stimulated with 20 ng/ml DNP-HSA for 5 min. Total cell lysates were then prepared and analyzed for phospho-PKB, phospho-p38^MAPK, phospho-MAPK, Grb-2 (Cell Signalling, Mississauga, Ont) and SHIP^6 by immunoblot analysis. Assay 5) Mouse acute cutaneous anaphylaxis model. 6-8 week old CD1 mice (University of British Columbia Animal Facility, Vancouver, BC) were sensitized to the hapten DNP by cutaneous application of 25 μL of 0.5% dinitrofluorobenzene (DNFB) (Sigma, Oakville, Ont) in acetone to the shaved abdomen of mice for two consecutive days. 24 hrs later, test substances (dissolved in 10 μL of 1:2 DMSO:MeOH) were painted on the right ear while the left ear received vehicle control. 30 min after drug application, DNFB was applied to both ears to induce mast cell degranulation. A 6 mm punch was taken from the ear and immediately frozen on dry ice for subsequent determination of neutrophil myeloperoxidase (MPO) activity. Assay 6) Mouse endotoxemia model. 6-8 week old C57B16 mice (VCHRI Mammalian Model of Human Disease Core Facility, Vancouver, BC) were orally administered the test compound 30 min prior to an IP injection of 2 mg/kg of LPS (E. Coli serotype 0111:B4, Sigma, Oakville, Ont). Blood was drawn 2 hrs later for determination of plasma TNFα by ELISA. Assay 7) In vitro Mulitple Myeloma (MM) assay. The ability of SHIP activators to reduce tumor cell survival was assessed in MM cell lines treated with the test compound. The lines OPM1, OPM2, MM.1S and RPMI 8226 were plated at a density of 1×10^5 cells/mL in 200 μL of medium with various concentrations of the test compound, and viable cell numbers were determined on day 3 and day 5 by trypan blue exclusion. The lines RPMI 8226 and U266 were plated at a density of 1×10^6 cells/mL in 250 μL of medium with various concentrations of the test compound. At day 4, the medium of each culture was replaced by fresh medium containing the same concentration of test compound. […]

Cc1cc(O)cc2c1[C@]1(C)CCC3C(C)(C)CCC[C@]3(C)[C@H]1C2 (some centres unmarked) [Compound 100]
binding of [3H]-Compound 100 to wild-type SHIP (wild-type SHIP): bound to wild-type SHIP | binding of C2 domain to PI-3,4-P2 (SHIP C2 domain): inhibited | Assay 4: Stimulation of mast cells by FcεRI crosslinking, desired activity (Mast cells): + | SHIP enzyme activity in vitro (SHIP enzyme): enhanced SHIP enzyme activity in vitro | Assay 1: SHIP enzyme assay, desired activity (SHIP enzyme; 10 ng enzyme/well, 100 μM inositol-1,3,4,5-tetrakisphosphate): +
